Experimental data: publication PMC3669347, “A Multi-System Approach Assessing the Interaction of Anticonvulsants with P-gp” (PLoS ONE, 2013)
Like-named read-outs stand apart in the source and are kept apart here.

Tests used:
P-gp [1] = biological target: T1, P-gp (Homo sapiens, UniProt P08183); set-up: induced multi-drug resistance through over-expression of P-gp; endogenous in cells; host or cells: CEM (low P-gp) and VBL100 (vinblastine-selected, high P-gp) cells; conditions: cited from earlier work
T1 sequence (P08183 whole entry): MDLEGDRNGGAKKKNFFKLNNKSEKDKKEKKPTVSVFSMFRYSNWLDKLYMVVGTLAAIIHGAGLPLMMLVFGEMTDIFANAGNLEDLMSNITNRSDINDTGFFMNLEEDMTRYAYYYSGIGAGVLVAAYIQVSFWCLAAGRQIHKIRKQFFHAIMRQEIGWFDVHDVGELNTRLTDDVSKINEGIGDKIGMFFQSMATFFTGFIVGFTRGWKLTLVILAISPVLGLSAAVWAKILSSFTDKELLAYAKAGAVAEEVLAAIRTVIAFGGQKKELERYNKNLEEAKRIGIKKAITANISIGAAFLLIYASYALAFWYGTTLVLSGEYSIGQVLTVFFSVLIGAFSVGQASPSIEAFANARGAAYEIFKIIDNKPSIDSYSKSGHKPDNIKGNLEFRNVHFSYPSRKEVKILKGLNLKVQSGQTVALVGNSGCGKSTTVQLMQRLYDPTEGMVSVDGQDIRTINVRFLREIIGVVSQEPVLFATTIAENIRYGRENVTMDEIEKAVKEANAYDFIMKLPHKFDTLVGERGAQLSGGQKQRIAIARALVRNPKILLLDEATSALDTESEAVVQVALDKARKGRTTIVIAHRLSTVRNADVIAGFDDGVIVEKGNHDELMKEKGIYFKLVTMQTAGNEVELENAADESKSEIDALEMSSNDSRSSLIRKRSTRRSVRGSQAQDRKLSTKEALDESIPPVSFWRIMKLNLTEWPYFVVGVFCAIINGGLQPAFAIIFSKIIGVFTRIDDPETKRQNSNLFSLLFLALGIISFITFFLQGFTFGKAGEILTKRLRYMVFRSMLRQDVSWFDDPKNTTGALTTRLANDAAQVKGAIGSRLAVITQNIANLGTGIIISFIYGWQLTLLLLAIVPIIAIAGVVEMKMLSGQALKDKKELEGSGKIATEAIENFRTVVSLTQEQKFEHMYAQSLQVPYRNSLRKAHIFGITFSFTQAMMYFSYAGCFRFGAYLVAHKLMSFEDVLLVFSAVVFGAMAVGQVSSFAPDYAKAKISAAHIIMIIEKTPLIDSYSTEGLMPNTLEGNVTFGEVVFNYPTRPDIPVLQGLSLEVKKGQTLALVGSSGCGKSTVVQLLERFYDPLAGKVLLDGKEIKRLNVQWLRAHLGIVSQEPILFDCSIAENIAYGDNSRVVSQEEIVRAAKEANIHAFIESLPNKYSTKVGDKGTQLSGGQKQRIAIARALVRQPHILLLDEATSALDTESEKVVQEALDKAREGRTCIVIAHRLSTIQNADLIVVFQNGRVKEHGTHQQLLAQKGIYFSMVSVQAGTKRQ

human P-gp [2] = conditions: cited from earlier work; for Substrate of P-gp (published evidence): Transfected human P-gp cell lines, equilibrium
P-gp [3] = biological target: T2, P-gp (Sus scrofa, UniProt K7GMM7); set-up: method as in PMID 12954800; conditions: porcine brain endothelial cells, cited from earlier work
T2 sequence (K7GMM7 1-1248): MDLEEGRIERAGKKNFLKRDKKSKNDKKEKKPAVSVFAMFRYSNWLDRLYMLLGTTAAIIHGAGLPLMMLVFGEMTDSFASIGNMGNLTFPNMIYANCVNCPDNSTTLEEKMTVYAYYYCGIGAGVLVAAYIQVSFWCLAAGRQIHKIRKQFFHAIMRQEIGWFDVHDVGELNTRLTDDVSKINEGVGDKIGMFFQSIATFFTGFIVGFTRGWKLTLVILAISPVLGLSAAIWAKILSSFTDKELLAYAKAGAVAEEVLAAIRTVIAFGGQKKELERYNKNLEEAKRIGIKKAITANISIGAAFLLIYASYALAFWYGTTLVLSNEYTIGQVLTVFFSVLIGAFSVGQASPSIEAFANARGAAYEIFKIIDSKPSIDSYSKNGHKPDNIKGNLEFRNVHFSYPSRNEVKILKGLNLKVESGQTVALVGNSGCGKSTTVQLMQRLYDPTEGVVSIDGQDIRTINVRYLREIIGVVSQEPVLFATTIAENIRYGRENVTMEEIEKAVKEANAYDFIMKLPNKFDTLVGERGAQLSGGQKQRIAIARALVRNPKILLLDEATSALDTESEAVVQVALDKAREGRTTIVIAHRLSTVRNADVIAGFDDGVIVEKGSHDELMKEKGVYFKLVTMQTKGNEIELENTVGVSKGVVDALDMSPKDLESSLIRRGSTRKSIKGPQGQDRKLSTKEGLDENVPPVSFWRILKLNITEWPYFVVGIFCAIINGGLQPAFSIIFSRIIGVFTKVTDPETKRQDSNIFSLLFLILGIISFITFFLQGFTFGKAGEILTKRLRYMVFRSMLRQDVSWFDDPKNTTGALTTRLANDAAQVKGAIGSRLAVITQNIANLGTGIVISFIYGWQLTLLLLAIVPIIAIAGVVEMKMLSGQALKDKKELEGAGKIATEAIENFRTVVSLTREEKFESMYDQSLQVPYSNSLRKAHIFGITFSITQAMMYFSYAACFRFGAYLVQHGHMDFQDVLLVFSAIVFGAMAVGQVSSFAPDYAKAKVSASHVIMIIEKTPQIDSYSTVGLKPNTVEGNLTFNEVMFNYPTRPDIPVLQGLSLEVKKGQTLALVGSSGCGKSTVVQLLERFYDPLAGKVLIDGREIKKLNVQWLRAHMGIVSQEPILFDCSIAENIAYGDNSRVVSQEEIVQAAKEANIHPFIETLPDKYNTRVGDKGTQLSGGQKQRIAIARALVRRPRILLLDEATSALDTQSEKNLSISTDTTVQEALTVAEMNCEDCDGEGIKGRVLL

P-gp [4] = conditions: cited from earlier work
P-gp [5] = conditions: cited from earlier work; for Substrate of P-gp (published evidence): MDR1 KO Mouse; for Brain accumulation affected by rodent P-gp: MDR1 knockout mice
mouse P-gp = conditions: Transfected mouse P-gp cell line; bi-directional transwell method; cited from earlier work
P-gp [6] = biological target: T1, P-gp; assay: Cellular accumulation assay in CEM and VBL100 cells; conditions: for Accumulation in VBL100 cells compared with CEM cells / Effect of tariquidar on accumulation in VBL100 cells: 5µM drug, 30 minutes; for Effect of tariquidar on accumulation in VBL100 cells: 300nM tariquidar; for Interaction with P-gp observed: CEM/VBL cells
P-gp [7] = biological target: T1, P-gp; set-up: induced multi-drug resistance through over-expression of P-gp; endogenous in cells; host or cells: CEM (low P-gp) and VBL100 (vinblastine-selected, high P-gp) cells; method as in PMID 11318771, PMID 16882549; conditions: Caco-2 bi-directional transwell; cited from earlier work
P-gp [8] = biological target: T2, P-gp; assay: Permeability assay in primary porcine brain endothelial cells (PBECs); assay type: in vitro ADME; conditions: for Effect of verapamil or tariquidar treatment on apical to basolateral Papp: 6µM drug, 1 hour, 100µM verapamil, 300nM tariquidar; for Interaction with P-gp observed: Primary porcine brain endothelial
Experimental: The porcine brain microvessel isolation and culture protocol was based on previously published papers, [29]with modifications. Briefly, brains from six pigs (Cheale Meats Ltd., Brentwood, UK) were washed. The grey matter was homogenised, filtered, digested, centrifuged and microvessels cryopreserved.
The PBECs were seeded onto rat-tail collagen/fibronectin-coated transwell filter inserts at a density of 1×10^5cells/cm^2. […] This was conducted to elevate intracellular cAMP and thereby encourage differentiation of BBB phenotype including tight junctions. Cell monolayers were used when TEER exceeded 340 Ω.cm^2. For permeability assays, DMEM without phenol red with added HEPES (25mM) and 0.1% BSA was pH adjusted to 7.4 and used as transport medium. […] Samples were taken from both compartments.Apparent permeability (Papp) in cm/s for the compounds studied was calculated as previously described.

P-gp [9] = biological target: T1, P-gp; assay: Concentration equilibrium transport assay in Caco-2 cells; conditions: for Polarised transport in Caco-2 concentration equilibrium assay: 5µM drug, 4 hour time course, ±300nM tariquidar; for Interaction with P-gp observed: Caco-2 (equilibrium method)
P-gp [10] = biological target: T1, P-gp; assay: X. laevis oocyte P-gp drug transport assay (efflux and accumulation); conditions: for Accumulation in oocytes expressing human P-gp vs water-injected oocytes: 20µM drug ±40µM PSC833, 1 hour; for Accumulation in oocytes expressing human P-gp vs water-injected oocytes / Efflux from P-gp injected oocytes vs water-injected oocytes: 22°C; for Interaction with P-gp observed: Xenopus laevis oocytes expressing human P-gp; for Efflux from P-gp injected oocytes vs water-injected oocytes: intra-oocyte 1µM digoxin or 5µM phenytoin, 45 minutes
P-gp [11] = biological target: T1, P-gp; conditions: for Effect of tariquidar on accumulation in hCMEC/D3 cells: 5µM drug, 30 minutes, 300nM tariquidar; for Interaction with P-gp observed: Human brain endothelial cell line (hCMEC/D3)
Experimental: Cells were equilibrated in transport buffer (HBSS containing 25mM HEPES and 0.1% (w/v) bovine serum albumin at pH 7.4) at 37°C with accumulation assays performed as previously described [24], [25].

P-gp [12] = biological target: T1, P-gp; assay: Concentration equilibrium transport assay in MDCKII±P-gp cells; conditions: for Transport into the apical compartment, MDCKII-P-gp vs parental MDCKII cells: 5µM drug, 6 hour time course, ±300nM tariquidar; for Interaction with P-gp observed: MDCK±P-gp (equilibrium method)
P-gp [13] = conditions: cited from earlier work; remark: listed apart in the source
P-gp [14] = biological target: T1, P-gp; assay: Concentration equilibrium transport assay in LLC-PK1±P-gp cells; conditions: for Transport into the apical compartment, LLC-PK1-P-gp vs parental LLC-PK1 cells: 5µM drug, 6 hour time course, ±300nM tariquidar; for Interaction with P-gp observed: LLC-PK1±P-gp (equilibrium method)
P-gp [15] = conditions: Microdialysis/brain access in rodent models; cited from earlier work
P-gp [16] = biological target: T1, P-gp; set-up: induced multi-drug resistance through over-expression of P-gp; endogenous in cells; host or cells: CEM (low P-gp) and VBL100 (vinblastine-selected, high P-gp) cells; method as in PMID 12954800; conditions: LLC-PK1-P-gp cells, 100µM drug; cited from earlier work
human P-gp [17] = conditions: Transfected human P-gp cell lines; bi-directional transwell; cited from earlier work
P-gp [18] = biological target: T1, P-gp; set-up: induced multi-drug resistance through over-expression of P-gp; endogenous in cells; host or cells: CEM (low P-gp) and VBL100 (vinblastine-selected, high P-gp) cells; method as in PMID 17326793; conditions: Primary epileptic derived human brain endothelial cells; cited from earlier work
P-gp [19] = biological target: T1, P-gp; set-up: induced multi-drug resistance through over-expression of P-gp; endogenous in cells; host or cells: CEM (low P-gp) and VBL100 (vinblastine-selected, high P-gp) cells; method as in PMID 17326793; conditions: Primary human brain endothelial cells; cited from earlier work

CC1(C)CCC(c2ccc(Cl)cc2)=C(CN2CCN(c3ccc(C(=O)NS(=O)(=O)c4ccc(N[C@H](CCN5CCOCC5)CSc5ccccc5)c(S(=O)(=O)C(F)(F)F)c4)cc3)CC2)C1 [ABT-263]
Identified as P-gp substrate with CEM and VBL100 cells (P-gp [1]): P-gp substrates

NC(=O)N1c2ccccc2C2OC2c2ccccc21 (centres unmarked) [carbamazepine-10,11-epoxide]
Transport by P-gp, concentration equilibrium approach (human P-gp [2]): does transport

NC(=O)N1c2ccccc2C=Cc2ccccc21 [carbamazepine]
Inhibition of uptake of calcein AM (P-gp [3]; 10µM): not at 10µM | Inhibition of uptake of calcein AM (P-gp [3]; 100µM): able to inhibit | Calcein-AM P-gp inhibition assay (published evidence) (P-gp [4]): No | Substrate of P-gp (published evidence) (P-gp [5]): No | Brain accumulation affected by rodent P-gp (P-gp [5]): not | Substrate of P-gp (published evidence) (mouse P-gp): No | Accumulation in VBL100 cells compared with CEM cells (P-gp [6]): significantly higher accumulation | Effect of tariquidar on accumulation in VBL100 cells (P-gp [6]): not inhibited by tariquidar | Interaction with P-gp observed (P-gp [6]): No | Substrate of P-gp (published evidence) (P-gp [7]): No | Effect of verapamil or tariquidar treatment on apical to basolateral Papp (P-gp [8]): decrease | Interaction with P-gp observed (P-gp [8]): No | Polarised transport in Caco-2 concentration equilibrium assay (P-gp [9]): No polarised transport | Interaction with P-gp observed (P-gp [9]): No | Accumulation in oocytes expressing human P-gp vs water-injected oocytes (P-gp [10]): No differences | Interaction with P-gp observed (P-gp [10]): No | Effect of tariquidar on accumulation in hCMEC/D3 cells (P-gp [11]): No effect of tariquidar | Interaction with P-gp observed (P-gp [11]): No | Transport into the apical compartment, MDCKII-P-gp vs parental MDCKII cells (P-gp [12]): no difference | Interaction with P-gp observed (P-gp [12]): No | Stimulation of P-gp ATPase activity (published evidence) (P-gp [13]): No | Transport into the apical compartment, LLC-PK1-P-gp vs parental LLC-PK1 cells (P-gp [14]): no transport | Interaction with P-gp observed (P-gp [14]): No | Substrate of P-gp (published evidence) (P-gp [15]): Yes | Inhibition of the uptake of the P-gp substrate (P-gp [16]): no inhibition | Substrate of P-gp (published evidence) (human P-gp [17]): No | Substrate of P-gp (published evidence) (human P-gp [2]): No | Transport by P-gp, concentration equilibrium approach (human P-gp [2]): does not transport

C[C@H]1O[C@@H](O[C@H]2[C@@H](O)C[C@H](O[C@H]3[C@@H](O)C[C@H](O[C@H]4CC[C@@]5(C)[C@H](CC[C@@H]6[C@@H]5C[C@@H](O)[C@]5(C)[C@@H](C7=CC(=O)OC7)CC[C@]65O)C4)O[C@@H]3C)O[C@@H]2C)C[C@H](O)[C@@H]1O [digoxin]
Accumulation in VBL100 cells compared with CEM cells (P-gp [6]): less accumulation | Effect of tariquidar on accumulation in VBL100 cells (P-gp [6]): tariquidar restored accumulation | Polarised transport in Caco-2 concentration equilibrium assay (P-gp [9]): transported into the apical compartment and this was inhibited by tariquidar | P-gp substrate status in oocyte expression system (P-gp [10]; imatinib data not shown): confirmed to be substrates | Efflux from P-gp injected oocytes vs water-injected oocytes (P-gp [10]): higher efflux | Effect of PSC-833 on efflux from P-gp injected oocytes (P-gp [10]; intra-oocyte 1µM digoxin, 40µM PSC833): reduced | Transport into the apical compartment, MDCKII-P-gp vs parental MDCKII cells (P-gp [12]): significant increase in apical concentration | Transport into the apical compartment, LLC-PK1-P-gp vs parental LLC-PK1 cells (P-gp [14]): significantly higher transport

Cc1ccc(NC(=O)c2ccc(CN3CCN(C)CC3)cc2)cc1Nc1nccc(-c2cccnc2)n1 [imatinib]
Identified as P-gp substrate with CEM and VBL100 cells (P-gp [1]): P-gp substrates

Nc1nnc(-c2cccc(Cl)c2Cl)c(N)n1 [lamotrigine]
Brain accumulation affected by rodent P-gp (P-gp [5]): not | Inhibition by tariquidar of P-gp mediated transport (human P-gp [2]; LLC-PK1-P-gp, concentration equilibrium approach, ref 18 (Luna-Tortos et al)): 60%

O=C1NC(=O)C(c2ccccc2)(c2ccccc2)N1 [phenytoin]
Calcein-AM P-gp inhibition assay (published evidence) (P-gp [4]): No | Substrate of P-gp (published evidence) (P-gp [5]): Yes/No | Brain accumulation affected by rodent P-gp (P-gp [5]): affects brain accumulation | Substrate of P-gp (published evidence) (P-gp [18]): Yes | Substrate of P-gp (published evidence) (P-gp [19]): No | Substrate of P-gp (published evidence) (mouse P-gp): Yes/No | Accumulation in VBL100 cells compared with CEM cells (P-gp [6]): No significant decrease in accumulation or tariquidar inhibition | Interaction with P-gp observed (P-gp [6]): No | Substrate of P-gp (published evidence) (P-gp [7]): No | Effect of verapamil or tariquidar treatment on apical to basolateral Papp (P-gp [8]): not affected | Interaction with P-gp observed (P-gp [8]): No | Polarised transport in Caco-2 concentration equilibrium assay (P-gp [9]): No polarised transport | Interaction with P-gp observed (P-gp [9]): No | Accumulation in oocytes expressing human P-gp vs water-injected oocytes (P-gp [10]): No differences | Interaction with P-gp observed (P-gp [10]): No | Efflux from P-gp injected oocytes vs water-injected oocytes (P-gp [10]): No difference | Effect of tariquidar on accumulation in hCMEC/D3 cells (P-gp [11]): No effect of tariquidar | Interaction with P-gp observed (P-gp [11]): No | Transport into the apical compartment, MDCKII-P-gp vs parental MDCKII cells (P-gp [12]): more phenytoin was transported into the apical compartment | Interaction with P-gp observed (P-gp [12]): Yes –“weak” | Stimulation of P-gp ATPase activity (published evidence) (P-gp [13]): No | Transport into the apical compartment, LLC-PK1-P-gp vs parental LLC-PK1 cells (P-gp [14]): higher in LLC-PK1-P-gp cells and inhibitable by tariquidar | Interaction with P-gp observed (P-gp [14]): Yes –“weak” | Substrate of P-gp (published evidence) (P-gp [15]): Yes | Inhibition of the uptake of the P-gp substrate (P-gp [16]): no inhibition | Substrate of P-gp (published evidence) (human P-gp [17]): No | Substrate of P-gp (published evidence) (human P-gp [2]): Yes
